Test results: PMC6409085, “Three odorant-binding proteins are involved in the behavioral response of Sogatella furcifera to rice plant volatiles” (PeerJ, 2019)
Several values for one entry are separate records, joined by “and”; a condition that tells them apart may be missing. Equal entries are not always repeated.

Key:
[1] = tested on: S. furcifera adults; test: Y-tube olfactometer behavioral trials; type: in vivo, Sogatella furcifera; conditions: odorant 50 µL/L vs hexane
Method in brief: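 Single S. furcifera adults (2 days post-emergence, starved 0.5 h) chose between odorant (100 µL of 50 µL/L on filter paper) and hexane control in a glass Y-tube, charcoal-filtered humidified air 300 mL/min per arm, 25 ± 1 °C, 50% RH. Choice scored if insect passed half an arm and stayed >1 min within 10 min; 45 insects per compound, chi-squared test.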

[2] = molecular target: SfurOBP1 (Sogatella furcifera, UniProt V5T8N5); test: biochemical; type: binding; conditions: for Fluorescence competitive binding assay, fluorescence intensity: OBP1, three replicate columns
Sequence of SfurOBP1 (V5T8N5 entry or part of it): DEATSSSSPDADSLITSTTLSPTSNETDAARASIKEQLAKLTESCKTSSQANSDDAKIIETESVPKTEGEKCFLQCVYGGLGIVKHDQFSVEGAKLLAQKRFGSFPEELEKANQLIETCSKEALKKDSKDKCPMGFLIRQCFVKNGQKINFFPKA
Method in brief: (§1)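 K1-NPN came from titrating 2.0 µM protein (50 mM Tris-HCl, pH 7.4) with 1-NPN. Odorants at 2-20 µM then competed against 2.0 µM protein plus 2.0 µM 1-NPN for 2 min, with excitation at 337 nm and emission recorded over 390-490 nm. IC50 values were converted to Ki via Ki = IC50/(1 + [1-NPN]/K1-NPN).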

[3] = molecular target: SfurOBP11 (Sogatella furcifera, UniProt V5T6E3); test: biochemical; type: binding
Sequence of SfurOBP11 (V5T6E3 entry or part of it): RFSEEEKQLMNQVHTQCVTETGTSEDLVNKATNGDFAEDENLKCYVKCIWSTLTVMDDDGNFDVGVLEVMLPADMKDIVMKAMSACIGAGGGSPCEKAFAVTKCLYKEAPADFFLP
Method in brief: as §1

[4] = molecular target: SfurOBP2 (Sogatella furcifera, UniProt V5T759); test: biochemical; type: binding
Sequence of SfurOBP2 (V5T759 entry or part of it): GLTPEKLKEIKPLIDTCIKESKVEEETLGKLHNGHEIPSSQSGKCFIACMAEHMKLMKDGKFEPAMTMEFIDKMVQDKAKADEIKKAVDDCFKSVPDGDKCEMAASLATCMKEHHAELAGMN
Method in brief: as §1

[5] = molecular target: SfurOBP3 (Sogatella furcifera, UniProt V5T818); test: biochemical; type: binding; conditions: for Fluorescence competitive binding assay, fluorescence intensity: OBP3, three replicate columns
Sequence of SfurOBP3 (V5T818 entry or part of it): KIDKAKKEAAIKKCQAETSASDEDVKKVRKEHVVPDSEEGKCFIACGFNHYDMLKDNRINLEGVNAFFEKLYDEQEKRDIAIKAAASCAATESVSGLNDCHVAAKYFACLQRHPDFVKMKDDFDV
Method in brief: as §1

CC(=O)/C=C/C1=C(C)CCCC1(C)C [β-Ionone]
behavioral response of S. furcifera (in words) [1]: strongly attracted | number of insects choosing hexane arm ([1]; adults): 18 | number of insects choosing volatilies arm ([1]; adults): 10 | number of insects failed (no choice) ([1]; adults): 12 | IC50 [2]: > 20 µM | Fluorescence competitive binding assay, fluorescence intensity ([2]; ligand concentration 2 (μM)): 7051 and 7963 and 8084 | Fluorescence competitive binding assay, fluorescence intensity ([2]; ligand concentration 4 (μM)): 8179 and 8456 and 7621 | Fluorescence competitive binding assay, fluorescence intensity ([2]; ligand concentration 6 (μM)): 7891 and 8214 and 10941 | Fluorescence competitive binding assay, fluorescence intensity ([2]; ligand concentration 8 (μM)): 7486 and 8333 and 7729 | Fluorescence competitive binding assay, fluorescence intensity ([2]; ligand concentration 10 (μM)): 7166 and 7631 and 8078 | Fluorescence competitive binding assay, fluorescence intensity ([2]; ligand concentration 12 (μM)): 13786 and 8045 and 7592 | Fluorescence competitive binding assay, fluorescence intensity ([2]; ligand concentration 14 (μM)): 7676 and 7139 and 7314 | Fluorescence competitive binding assay, fluorescence intensity ([2]; ligand concentration 16 (μM)): 6374 and 6355 and 6393 | Fluorescence competitive binding assay, fluorescence intensity ([2]; ligand concentration 18 (μM)): 6677 and 6433 and 6722 | Fluorescence competitive binding assay, fluorescence intensity ([2]; ligand concentration 20 (μM)): 6744 and 6442 and 6578 | IC50 [3]: 19.9 µM | Fluorescence intensity, fluorescence competitive binding assay, OBP11 ([3]; ligand concentration 2, replicate 1): 28050 | Fluorescence intensity, fluorescence competitive binding assay, OBP11 ([3]; ligand concentration 2, replicate 2): 27736 | Fluorescence intensity, fluorescence competitive binding assay, OBP11 ([3]; ligand concentration 2, replicate 3): 27612 | Fluorescence intensity, fluorescence competitive binding assay, OBP11 ([3]; ligand concentration 4, replicate 1): 28634 | Fluorescence intensity, fluorescence competitive binding assay, OBP11 ([3]; ligand concentration 4, replicate 2): 28801 | Fluorescence intensity, fluorescence competitive binding assay, OBP11 ([3]; ligand concentration 4, replicate 3): 26168 | Fluorescence intensity, fluorescence competitive binding assay, OBP11 ([3]; ligand concentration 6, replicate 1): 26910 | Fluorescence intensity, fluorescence competitive binding assay, OBP11 ([3]; ligand concentration 6, replicate 2): 26403 | Fluorescence intensity, fluorescence competitive binding assay, OBP11 ([3]; ligand concentration 6, replicate 3): 26657 | Fluorescence intensity, fluorescence competitive binding assay, OBP11 ([3]; ligand concentration 8, replicate 1): 23184 | Fluorescence intensity, fluorescence competitive binding assay, OBP11 ([3]; ligand concentration 8, replicate 2): 24499 | Fluorescence intensity, fluorescence competitive binding assay, OBP11 ([3]; ligand concentration 8, replicate 3): 24103 | Fluorescence intensity, fluorescence competitive binding assay, OBP11 ([3]; ligand concentration 10, replicate 1): 21871 | Fluorescence intensity, fluorescence competitive binding assay, OBP11 ([3]; ligand concentration 10, replicate 2): 21831 | Fluorescence intensity, fluorescence competitive binding assay, OBP11 ([3]; ligand concentration 10, replicate 3): 22447 | Fluorescence intensity, fluorescence competitive binding assay, OBP11 ([3]; ligand concentration 12, replicate 1): 20048 | Fluorescence intensity, fluorescence competitive binding assay, OBP11 ([3]; ligand concentration 12, replicate 2): 20727 | Fluorescence intensity, fluorescence competitive binding assay, OBP11 ([3]; ligand concentration 12, replicate 3): 21593 | Fluorescence intensity, fluorescence competitive binding assay, OBP11 ([3]; ligand concentration 14, replicate 1): 17047 | Fluorescence intensity, fluorescence competitive binding assay, OBP11 ([3]; ligand concentration 14, replicate 2): 18839 | Fluorescence intensity, fluorescence competitive binding assay, OBP11 ([3]; ligand concentration 14, replicate 3): 19615 | Fluorescence intensity, fluorescence competitive binding assay, OBP11 ([3]; ligand concentration 16, replicate 1): 15254 | Fluorescence intensity, fluorescence competitive binding assay, OBP11 ([3]; ligand concentration 16, replicate 2): 16765 | Fluorescence intensity, fluorescence competitive binding assay, OBP11 ([3]; ligand concentration 16, replicate 3): 16613 | Fluorescence intensity, fluorescence competitive binding assay, OBP11 ([3]; ligand concentration 18, replicate 1): 17103 | Fluorescence intensity, fluorescence competitive binding assay, OBP11 ([3]; ligand concentration 18, replicate 2): 17364 | Fluorescence intensity, fluorescence competitive binding assay, OBP11 ([3]; ligand concentration 18, replicate 3): 18167 | Fluorescence intensity, fluorescence competitive binding assay, OBP11 ([3]; ligand concentration 20, replicate 1): 16580 | Fluorescence intensity, fluorescence competitive binding assay, OBP11 ([3]; ligand concentration 20, replicate 2): 17841 | Fluorescence intensity, fluorescence competitive binding assay, OBP11 ([3]; ligand concentration 20, replicate 3): 17555 | IC50 [4]: 20 µM | Fluorescence competitive binding assay, OBP2 (raw fluorescence reading) ([4]; ligand concentration 2 (unit not given), replicate column 1 of 3): 20663 | Fluorescence competitive binding assay, OBP2 (raw fluorescence reading) ([4]; ligand concentration 2 (unit not given), replicate column 2 of 3): 19168 | Fluorescence competitive binding assay, OBP2 (raw fluorescence reading) ([4]; ligand concentration 2 (unit not given), replicate column 3 of 3): 19828 | Fluorescence competitive binding assay, OBP2 (raw fluorescence reading) ([4]; ligand concentration 4 (unit not given), replicate column 1 of 3): 20326 | Fluorescence competitive binding assay, OBP2 (raw fluorescence reading) ([4]; ligand concentration 4 (unit not given), replicate column 2 of 3): 19347 | Fluorescence competitive binding assay, OBP2 (raw fluorescence reading) ([4]; ligand concentration 4 (unit not given), replicate column 3 of 3): 18863 | Fluorescence competitive binding assay, OBP2 (raw fluorescence reading) ([4]; ligand concentration 6 (unit not given), replicate column 1 of 3): 19895 | Fluorescence competitive binding assay, OBP2 (raw fluorescence reading) ([4]; ligand concentration 6 (unit not given), replicate column 2 of 3): 18583 | Fluorescence competitive binding assay, OBP2 (raw fluorescence reading) ([4]; ligand concentration 6 (unit not given), replicate column 3 of 3): 19617 | Fluorescence competitive binding assay, OBP2 (raw fluorescence reading) ([4]; ligand concentration 8 (unit not given), replicate column 1 of 3): 17627 | Fluorescence competitive binding assay, OBP2 (raw fluorescence reading) ([4]; ligand concentration 8 (unit not given), replicate column 2 of 3): 19078 | Fluorescence competitive binding assay, OBP2 (raw fluorescence reading) ([4]; ligand concentration 8 (unit not given), replicate column 3 of 3): 16731 | Fluorescence competitive binding assay, OBP2 (raw fluorescence reading) ([4]; ligand concentration 10 (unit not given), replicate column 1 of 3): 16901 | Fluorescence competitive binding assay, OBP2 (raw fluorescence reading) ([4]; ligand concentration 10 (unit not given), replicate column 2 of 3): 16412 | Fluorescence competitive binding assay, OBP2 (raw fluorescence reading) ([4]; ligand concentration 10 (unit not given), replicate column 3 of 3): 15901 | Fluorescence competitive binding assay, OBP2 (raw fluorescence reading) ([4]; ligand concentration 12 (unit not given), replicate column 1 of 3): 15640 | Fluorescence competitive binding assay, OBP2 (raw fluorescence reading) ([4]; ligand concentration 12 (unit not given), replicate column 2 of 3): 15758 | Fluorescence competitive binding assay, OBP2 (raw fluorescence reading) ([4]; ligand concentration 12 (unit not given), replicate column 3 of 3): 15363 | Fluorescence competitive binding assay, OBP2 (raw fluorescence reading) ([4]; ligand concentration 14 (unit not given), replicate column 1 of 3): 13711 | Fluorescence competitive binding assay, OBP2 (raw fluorescence reading) ([4]; ligand concentration 14 (unit not given), replicate column 2 of 3): 13915 | Fluorescence competitive binding assay, OBP2 (raw fluorescence reading) ([4]; ligand concentration 14 (unit not given), replicate column 3 of 3): 13962 | Fluorescence competitive binding assay, OBP2 (raw fluorescence reading) ([4]; ligand concentration 16 (unit not given), replicate column 1 of 3): 12366 | Fluorescence competitive binding assay, OBP2 (raw fluorescence reading) ([4]; ligand concentration 16 (unit not given), replicate column 2 of 3): 12873 | Fluorescence competitive binding assay, OBP2 (raw fluorescence reading) ([4]; ligand concentration 16 (unit not given), replicate column 3 of 3): 12910 | Fluorescence competitive binding assay, OBP2 (raw fluorescence reading) ([4]; ligand concentration 18 (unit not given), replicate column 1 of 3): 12338 | Fluorescence competitive binding assay, OBP2 (raw fluorescence reading) ([4]; ligand concentration 18 (unit not given), replicate column 2 of 3): 12028 | Fluorescence competitive binding assay, OBP2 (raw fluorescence reading) ([4]; ligand concentration 18 (unit not given), replicate column 3 of 3): 11737 | Fluorescence competitive binding assay, OBP2 (raw fluorescence reading) ([4]; ligand concentration 20 (unit not given), replicate column 1 of 3): 11557 | Fluorescence competitive binding assay, OBP2 (raw fluorescence reading) ([4]; ligand concentration 20 (unit not given), replicate column 2 of 3): 10983 | Fluorescence competitive binding assay, OBP2 (raw fluorescence reading) ([4]; ligand concentration 20 (unit not given), replicate column 3 of 3): 11423 | IC50 [5]: 12 µM | Fluorescence competitive binding assay, fluorescence intensity ([5]; ligand concentration 2): 49137 and 48472 and 49801 | Fluorescence competitive binding assay, fluorescence intensity ([5]; ligand concentration 4): 47017 and 46358 and 43965 | Fluorescence competitive binding assay, fluorescence intensity ([5]; ligand concentration 6): 39740 and 42626 and 39389 | Fluorescence competitive binding assay, fluorescence intensity ([5]; ligand concentration 8): 37430 and 36910 and 36009 | Fluorescence competitive binding assay, fluorescence intensity ([5]; ligand concentration 10): 35904 and 33157 and 32677 | Fluorescence competitive binding assay, fluorescence intensity ([5]; ligand concentration 12): 30694 and 33051 and 28374 | Fluorescence competitive binding assay, fluorescence intensity ([5]; ligand concentration 14): 26192 and 26407 and 26489 | Fluorescence competitive binding assay, fluorescence intensity ([5]; ligand concentration 16): 23097 and 23904 and 24653 | Fluorescence competitive binding assay, fluorescence intensity ([5]; ligand concentration 18): 23846 and 23655 and 23476 | Fluorescence competitive binding assay, fluorescence intensity ([5]; ligand concentration 20): 21994 and 24647 and 23321 | binding affinity to SfurOBP3 (in words) ([5]; SfurOBP3): high binding affinities
